Data on 32 molecules can be found in BindingDB's records for doi:10.1021/jm701348d (Inspire Pharmaceuticals, 2008).

Structures are written as SMILES. Values joined by “and” are separate entries in the source; they are usually repeats but may differ in a detail not shown here. Equal values may be shown once.

The test can be described thus: Antagonist activity at P2Y12 receptor assessed as inhibition of ADP-induced human platelet aggregation by washed platelet assay.

One may read the IC50 as the concentration that gives 50% inhibition. Take `CCCCCCCC1O[C@@H]2[C@H](O1)[C@@H](COP(=O)(O)OP(=O)(O)OP(=O)(O)OP(=O)(O)OC[C@@H]1O[C@H](n3ccc(=O)[nH]c3=O)[C@H]3OC(CCCCCCC)O[C@H]31)O[C@H]2n1ccc(=O)[nH]c1=O` (some centres not stated): the IC50 is 10.7 µM.

On to `O=C(Nc1ccc(F)cc1)Nc1ccn([C@@H]2O[C@H](COP(=O)(O)OP(=O)(O)OP(=O)(O)OP(=O)(O)OC[C@@H]3O[C@H](n4ccc(=O)[nH]c4=O)[C@H]4O[C@@H](Cc5ccccc5)O[C@H]43)[C@@H](O)[C@H]2O)c(=O)n1`, for which the IC50 amounted to 23.9 µM.

As for `Nc1ncnc2c1ncn2[C@@H]1O[C@H](COP(=O)(O)O)[C@H]2OC(/C=C/c3ccccc3)O[C@H]21` (some centres not stated), the IC50 was found to be 45.1 µM.

Turning to `CCNC(=O)Nc1ncnc2c1ncn2[C@@H]1O[C@H](COP(=O)(O)O)[C@H]2OC(c3ccccc3)O[C@H]21` (some centres not stated), the IC50 was 0.013 µM.

As to `O=C(Nc1ccccc1)Nc1ncnc2c1ncn2[C@@H]1O[C@H](COP(=O)(O)O)[C@H]2OC(C#Cc3ccccc3)O[C@H]21` (some centres not stated), the IC50 came to 0.288 µM.

`O=C(Nc1ccccc1)Nc1ncnc2c1ncn2[C@@H]1O[C@H](COP(=O)(O)OP(=O)(O)O)[C@@H](O)[C@H]1O`: the IC50 stood at 10.8 µM.

Turning to `Nc1ncnc2c1ncn2[C@@H]1O[C@H](COP(=O)(O)OP(=O)(O)OP(=O)(O)OP(=O)(O)OC[C@@H]2O[C@H](n3cnc4c(N)ncnc43)[C@@H](O)[C@H]2O)[C@H]2OC(Cc3ccccc3)O[C@H]21` (some centres not stated), the IC50 worked out at 6.54 µM.

For `O=c1ccn([C@@H]2O[C@H](COP(=O)(O)OP(=O)(O)OP(=O)(O)OP(=O)(O)OC[C@@H]3O[C@H](n4ccc(=O)[nH]c4=O)[C@@H](O)[C@H]3O)[C@H]3OC(/C=C/c4ccccc4)O[C@H]32)c(=O)[nH]1` (some centres not stated), the IC50 was 8.68 µM and 8.8 µM.

On to `O=c1ccn([C@@H]2O[C@H](COP(=O)(O)OP(=O)(O)OP(=O)(O)OP(=O)(O)OC[C@@H]3O[C@H](n4ccc(=O)[nH]c4=O)[C@H]4OC(c5ccccc5)O[C@H]43)[C@H]3OC(c4ccccc4)O[C@H]32)c(=O)[nH]1` (some centres not stated), for which the IC50 amounted to 8.29 µM.

On to `O=C(Nc1ccc(F)cc1)Nc1ccn([C@@H]2O[C@H](COP(=O)(O)OP(=O)(O)OP(=O)(O)OP(=O)(O)OC[C@@H]3O[C@H](n4ccc(=O)[nH]c4=O)[C@@H](O)[C@H]3O)[C@H]3O[C@@H](Cc4ccccc4)O[C@H]32)c(=O)n1`, for which the IC50 was 12.9 µM.

For the molecule `O=C(Nc1ccccc1)Nc1ncnc2c1ncn2[C@@H]1O[C@H](COP(=O)(O)OP(=O)(O)OP(=O)(O)OP(=O)(O)OC[C@@H]2O[C@H](n3cnc4c(NC(=O)Nc5ccccc5)ncnc43)[C@H]3O[C@@H](Cc4ccccc4)O[C@H]32)[C@H]2O[C@@H](Cc3ccccc3)O[C@H]21`, the IC50 was found to be 0.522 µM.

For `CCCCCCCC1O[C@@H]2[C@H](O1)[C@@H](COP(=O)(O)OP(=O)(O)OP(=O)(O)OP(=O)(O)OC[C@@H]1O[C@H](n3ccc(=O)[nH]c3=O)[C@@H](O)[C@H]1O)O[C@H]2n1ccc(=O)[nH]c1=O` (some centres not stated), the 50% inhibitory concentration (IC50) was 16.9 µM.

Turning to `O=C(Nc1ccccc1)Nc1ncnc2c1ncn2[C@@H]1O[C@H](COP(=O)(O)O)[C@H]2OC(/C=C/c3ccccc3)O[C@H]21` (some centres not stated), the IC50 was 0.21 µM.

Regarding `O=c1ccn([C@@H]2O[C@H](COP(=O)(O)OP(=O)(O)OP(=O)(O)OP(=O)(O)OC[C@@H]3O[C@H](n4ccc(=O)[nH]c4=O)[C@@H](O)[C@H]3O)[C@@H]3OC(c4ccccc4)O[C@H]32)c(=O)[nH]1` (some centres not stated), the IC50 worked out at 16.7 µM.

Consider `Nc1ncnc2c1ncn2[C@@H]1O[C@H](COP(=O)(O)O)[C@H]2OC(C#Cc3ccccc3)O[C@H]21` (some centres not stated), for which the IC50 was 57.1 µM.

Regarding `CCCCCCNC(=O)Nc1ncnc2c1ncn2[C@@H]1O[C@H](COP(=O)(O)O)[C@H]2OC(C#Cc3ccccc3)O[C@H]21` (some centres not stated), the IC50 turned out to be 0.211 µM.

On to `O=c1ccn([C@@H]2O[C@H](COP(=O)(O)OP(=O)(O)OP(=O)(O)OC[C@@H]3O[C@H](n4ccc(=O)[nH]c4=O)[C@H]4OC(Cc5ccccc5)O[C@H]43)[C@H]3OC(Cc4ccccc4)O[C@H]32)c(=O)[nH]1` (some centres not stated), for which the IC50 is 4.63 µM.

Consider `O=c1ccn([C@@H]2O[C@H](COP(=O)(O)OP(=O)(O)OP(=O)(O)OP(=O)(O)OC[C@@H]3O[C@H](n4ccc(=O)[nH]c4=O)[C@@H](O)[C@H]3O)[C@@H]3OC(Cc4ccccc4)O[C@H]32)c(=O)[nH]1` (some centres not stated), for which the IC50 is 27.1 µM.

For `Nc1ncnc2c1ncn2[C@@H]1O[C@H](COP(=O)(O)OP(=O)(O)O)[C@H]2O[C@@H](Cc3ccccc3)O[C@H]21`, the half-inhibitory concentration (IC50) worked out at 23 µM.

With `Nc1ncnc2c1ncn2[C@@H]1O[C@H](COP(=O)(O)OP(=O)(O)OP(=O)(O)OP(=O)(O)OC[C@@H]2O[C@H](n3cnc4c(N)ncnc43)[C@H]3OC(Cc4ccccc4)O[C@H]32)[C@H]2OC(Cc3ccccc3)O[C@H]21` (some centres not stated), the half-maximal inhibitory concentration (IC50) is 11.7 µM.

For `O=C(Nc1ccccc1)Nc1ncnc2c1ncn2[C@@H]1O[C@H](COP(=O)(O)O)[C@@H](O)[C@H]1O`, the IC50 amounted to 3.11 µM.

In the case of `O=C(Nc1ccc(F)cc1)Nc1ccn([C@@H]2O[C@H](COP(=O)(O)O)[C@H]3O[C@@H](Cc4ccccc4)O[C@H]32)c(=O)n1`, the IC50 turned out to be 11.2 µM.

As for `O=c1ccn([C@@H]2O[C@H](COP(=O)(O)OP(=O)(O)OP(=O)(O)OP(=O)(O)OC[C@@H]3O[C@H](n4ccc(=O)[nH]c4=O)[C@H]4OC(Cc5ccccc5)O[C@H]43)[C@H]3OC(Cc4ccccc4)O[C@H]32)c(=O)[nH]1` (some centres not stated), the IC50 was 1.82 µM.

Turning to `O=c1ccn([C@@H]2O[C@H](COP(=O)(O)OP(=O)(O)OP(=O)(O)OC[C@@H]3O[C@H](n4ccc(=O)[nH]c4=O)[C@@H](O)[C@H]3O)[C@H]3OC(Cc4ccccc4)O[C@H]32)c(=O)[nH]1` (some centres not stated), the IC50 was determined as 34.7 µM.

With `O=C(Nc1ccccc1)Nc1ncnc2c1ncn2[C@@H]1O[C@H](COP(=O)(O)OP(=O)(O)O)[C@H]2O[C@@H](Cc3ccccc3)O[C@H]21`, the IC50 was determined as 0.052 µM.

As to `O=C(Nc1ccccc1)Nc1ncnc2c1ncn2[C@@H]1O[C@H](COP(=O)(O)O)[C@H]2OC(Cc3ccccc3)O[C@H]21` (some centres not stated), the IC50 was determined as 0.16 µM.

Consider `CNc1ccccc1C(=O)O[C@H]1[C@@H](O)[C@H](n2ccc(=O)[nH]c2=O)O[C@@H]1COP(=O)(O)OP(=O)(O)OP(=O)(O)OP(=O)(O)OC[C@@H]1O[C@H](n2ccc(=O)[nH]c2=O)[C@@H](OC(=O)c2ccccc2NC)[C@H]1O`, for which the IC50 turned out to be 7.59 µM.

With `O=C(Nc1ncnc2c1ncn2[C@@H]1O[C@H](COP(=O)(O)O)[C@H]2OC(Cc3ccccc3)O[C@H]21)NC1CCCC1` (some centres not stated), the IC50 amounted to 0.0362 µM.

Regarding `CCNC(=O)Nc1ncnc2c1ncn2[C@@H]1O[C@H](COP(=O)(O)O)[C@H]2OC(Cc3ccccc3)O[C@H]21` (some centres not stated), the IC50 came out at 0.041 µM.

Take `CCCCCCNC(=O)Nc1ncnc2c1ncn2[C@@H]1O[C@H](COP(=O)(O)O)[C@H]2OC(/C=C/c3ccccc3)O[C@H]21` (some centres not stated): the IC50 came to 0.237 µM.

As to `O=c1ccn([C@@H]2O[C@H](COP(=O)(O)OP(=O)(O)OP(=O)(O)OP(=O)(O)OC[C@@H]3O[C@H](n4ccc(=O)[nH]c4=O)[C@H]4OC(/C=C/c5ccccc5)O[C@H]43)[C@H]3OC(/C=C/c4ccccc4)O[C@H]32)c(=O)[nH]1` (some centres not stated), the IC50 is 3.3 µM.

As for `CCCCCCNC(=O)Nc1ncnc2c1ncn2[C@@H]1O[C@H](COP(=O)(O)O)[C@H]2OC(Cc3ccccc3)O[C@H]21` (some centres not stated), the IC50 is 0.053 µM.
